Test results reported in PMC11011439, “Influence of Molecular Design on the Tumor Targeting and Biodistribution of PSMA-Binding Tracers Labeled with Technetium-99m” (International Journal of Molecular Sciences, 2024).
Marks after values point to notes of the source that are not given here.

Columns and labels:
PSMA [1] = target: T1, PSMA (Homo sapiens, UniProt Q04609); test: Real-time binding kinetics on living PC3-pip cells (LigandTracer Yellow); details: 5 nM tracer, 1:2 interaction model
T1 construct: expressed in transfected cells; host or cells: PC3-pip cells (from Prof. Martin G. Pomper, Johns Hopkins University)
T1 sequence (Q04609 whole entry): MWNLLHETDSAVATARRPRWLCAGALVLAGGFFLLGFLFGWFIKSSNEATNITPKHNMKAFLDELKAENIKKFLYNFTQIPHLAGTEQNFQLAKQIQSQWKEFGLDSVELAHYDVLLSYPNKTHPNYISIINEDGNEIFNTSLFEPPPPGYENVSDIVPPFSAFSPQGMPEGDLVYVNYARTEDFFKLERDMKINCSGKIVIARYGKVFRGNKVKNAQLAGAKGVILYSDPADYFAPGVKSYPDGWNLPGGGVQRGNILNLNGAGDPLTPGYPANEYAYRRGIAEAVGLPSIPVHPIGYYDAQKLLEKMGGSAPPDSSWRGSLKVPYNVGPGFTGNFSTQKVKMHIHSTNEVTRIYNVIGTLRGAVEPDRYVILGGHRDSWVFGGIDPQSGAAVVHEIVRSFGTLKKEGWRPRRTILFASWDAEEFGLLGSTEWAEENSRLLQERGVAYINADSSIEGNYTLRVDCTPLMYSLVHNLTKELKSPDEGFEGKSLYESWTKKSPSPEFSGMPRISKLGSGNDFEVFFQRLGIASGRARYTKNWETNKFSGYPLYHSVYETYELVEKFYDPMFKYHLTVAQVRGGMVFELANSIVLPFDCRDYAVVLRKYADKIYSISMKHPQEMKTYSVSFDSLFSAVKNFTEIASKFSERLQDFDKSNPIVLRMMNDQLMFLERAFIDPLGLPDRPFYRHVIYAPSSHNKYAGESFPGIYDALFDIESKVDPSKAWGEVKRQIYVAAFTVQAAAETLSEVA
Description: The binding kinetics of [^99mTc]Tc-labeled BQ0411, BQ0412, and BQ0413 were measured in real time using LigandTracer Yellow Instruments (Ridgeview Instruments AB, Uppsala, Sweden) on PC3-pip cells, as described earlier. The activity binding was recorded at 5 nM on the radiolabeled tracers for 150 min. After measuring the binding kinetics, the medium containing the labeled tracer was replaced with fresh medium, and the dissociation was monitored over 7 h. […]

PSMA [2] = target: T1, PSMA; test: In vitro binding specificity (saturation with non-labeled PSMA-11) on PC3-pip cells; details: 2 nM tracer, 250-fold molar excess of PSMA-11, 1 h, 37 °C
Description: For the in vitro binding specificity test, approximately 8 × 10^5 of PC3-pip cells per well were seeded in 6-well plates 24 h before the experiment. Cells in three control wells were pre-saturated with a 250-fold excess of non-labeled PSMA-11 15 min before the addition of radiotracers, while the second set was treated with complete media. After 15 min of incubation at room temperature, [^99mTc]Tc-labeled radioligands were added to all wells to reach a concentration of 2 nM. After one hour of incubation at 37 °C, the cells were washed with PBS solution, detached, and collected. Cell-associated activity was measured using a gamma counter and presented as the percentage of added activity.

[3] = Stability of the [99mTc]Tc-maG3 complex in PBS and under cysteine challenge (radio-HPLC); type: physicochemical
Description: The iTLC data were cross-validated using radio-HPLC analysis, performed using a Hitachi Chromaster HPLC system with a radioactivity detector and Phenomenex Luna® C18 column (100 Å; 150 × 4.6 mm; 5 µm) at room temperature (20 °C), in the following conditions: solvent A: 0.1% trifluoroacetic acid (TFA) in H2O, solvent B: 0.1% TFA in acetonitrile, flow rate: 1 mL/min. For identity and purity analysis of [^99mTc]Tc-BQ0411 and [^99mTc]Tc-BQ0412, the method with a gradient from 5 to 60% solvent B over 20 min was used.
To evaluate the chemical stability of the [^99mTc]Tc-maG3 complex, fractions of radiolabeled conjugates (10 µL, 0.25 µg) were incubated with a 300× molar excess of cysteine or with PBS at room temperature for 1 h. The test was run in triplicate.

[4] = Octanol/water distribution coefficient (LogD); type: physicochemical; details: n-octanol / Milli-Q water
Description: The LogD was determined experimentally based on the procedure described earlier. Briefly, the radiolabeled compound of interest was added to a LoBind Eppendorf tube (Eppendorf, Hamburg, Germany) containing Milli-Q water (500 μL) and n-octanol (500 μL), and the mixture was vortexed and centrifuged. Thereafter, three fractions from each phase were collected and the activity was measured using a gamma counter. The LogD was calculated by dividing the average activity measured in octanol by the average activity measured in water.

[5] = system: PSMA-expressing prostate cancer xenografts (PC3-pip); test: Biodistribution and tumor targeting in PC3-pip tumor-bearing mice; type: in vivo, BALB/c nu/nu mice; details: 3 h pi
Description: PSMA-expressing prostate cancer xenografts were implanted in BALB/c nu/nu mice by subcutaneous injection of PC3-pip cell suspension in PBS (10^7 cells/animal in 100 µL). The average tumor weight was 0.3 ± 0.2 g at the time of the experiment. Four mice per data point were used. Mice were intravenously injected with 5 nmol of the radiotracer (60 kBq, the mass of the injected compound was adjusted with an unlabeled tracer). The mice were euthanized 3 h pi, and the samples were treated as described above.

[6] = Biodistribution in NMRI mice; type: in vivo; details: for activity in carcass / activity in intestines with content / uptake in blood / uptake in kidney / uptake in liver / uptake in lung / uptake in salivary glands / uptake in spleen / uptake in stomach: 40 pmol/mouse iv
Description: Four NMRI mice were intravenously injected with 40 pmol of the radiotracer (60 kBq, the mass of the injected compound was adjusted with an unlabeled tracer). The mice were euthanized with a lethal intraperitoneal injection of ketamine/xylazine, followed by exsanguination at 3 and 24 h post-injection (pi). The organs of interest were collected, weighed, and measured for their activity content using a gamma counter. The uptake activity in organs was calculated as the percentage of injected activity per gram (%IA/g) for the blood, salivary glands, lungs, liver, spleen, stomach, and kidneys and as %IA for the remaining carcass and the rest of the intestines with content.

PC3-pip cells = test: Cellular processing (internalization) during continuous incubation; type: cell-based; details: 2 nM, 37 °C
Description: To evaluate the cellular processing of [^99mTc]Tc-labeled BQ0411 and BQ0412, PC3-pip cells were incubated with the radiolabeled tracer (2 nM), and at predetermined time points (1, 2, 4, and 8 h), cells were treated with 0.5 mL of 4 M urea solution in a 0.2 M glycine buffer, pH 2.5, for 5 min on ice. After that, the acidic supernatant was collected, and this fraction was considered to be the membrane-bound activity. To lyse the cells, 0.5 mL of 1 M sodium hydroxide solution was added and incubated at 37 °C for at least 20 min. The alkaline-containing solution was collected, and the basic fraction was considered to be the internalized activity.

CC(=O)N[C@@H](CCCCNC(=O)C[N]1C(=O)C[N]2C(=O)C[N]3C(=O)C[S][99Tc-]132=[O])C(=O)NCCCCCCCC(=O)N[C@@H](Cc1ccc(O)cc1)C(=O)N[C@@H](Cc1ccc2ccccc2c1)C(=O)NCCCC[C@H](NC(=O)N[C@@H](CCC(=O)O)C(=O)O)C(=O)O [[^99mTc]Tc-BQ0412]
ka1 (PSMA [1]): 31000 M⁻¹ s⁻¹
ka2 (PSMA [1]): 46000 M⁻¹ s⁻¹
kd1 (PSMA [1]): 1.4e-05 s⁻¹
kd2 (PSMA [1]): 1.6e-05 s⁻¹
binding to PC3-pip cells after pre-treatment with excess non-labeled PSMA-11 (PSMA [2]): significantly (p ˂ 0.0001) decreased
release of activity under cysteine challenge ([3]; 300-fold molar excess of cysteine, room temperature, 1 h): around 60%
stability during incubation in PBS ([3]; PBS, room temperature, 1 h): stable
share of activity in radio-HPLC peak, retention time 6.2 min ([3]; cysteine challenge, radiolabeled product, speculated Tc–cysteine complex): 32.5%
share of activity in radio-HPLC peak, retention time 14.1 min ([3]; cysteine challenge, radiolabeled product, speculated intermediate transchelation product): 25.5%
logD (octanol–water distribution coefficient) [4]: −2.3 ± 0.1
activity in carcass ([5]; 5 nmol/mouse iv): 2.6 ± 1.3 %IA/sample
activity in intestines with content ([5]; 5 nmol/mouse iv): 69 ± 17 ^c %IA/sample
uptake in blood ([5]; 5 nmol/mouse iv): 0.5 ± 0.1 %IA/g
uptake in bone ([5]; 5 nmol/mouse iv): 0.15 ± 0.07 %IA/g
uptake in kidney ([5]; 5 nmol/mouse iv): 16 ± 5 %IA/g
uptake in liver ([5]; 5 nmol/mouse iv): 0.5 ± 0.1 %IA/g
uptake in lung ([5]; 5 nmol/mouse iv): 0.5 ± 0.1 %IA/g
uptake in muscle ([5]; 5 nmol/mouse iv): 0.2 ± 0.1 %IA/g
uptake in pancreas ([5]; 5 nmol/mouse iv): 0.4 ± 0.3 %IA/g
uptake in salivary glands ([5]; 5 nmol/mouse iv): 0.2 ± 0.1 ^c %IA/g
uptake in small intestine ([5]; 5 nmol/mouse iv): 1.2 ± 0.7 ^c %IA/g
uptake in spleen ([5]; 5 nmol/mouse iv): 0.6 ± 0.3 %IA/g
uptake in stomach ([5]; 5 nmol/mouse iv): 0.3 ± 0.2 %IA/g
uptake in tumor ([5]; 5 nmol/mouse iv): 17 ± 5 %IA/g
tumor-to-blood ratio ([5]; 5 nmol/mouse): 35 ± 4 ^c
tumor-to-bone ratio ([5]; 5 nmol/mouse): 128 ± 38
tumor-to-kidney ratio ([5]; 5 nmol/mouse): 1.1 ± 0.1
tumor-to-liver ratio ([5]; 5 nmol/mouse): 35 ± 5 ^c
tumor-to-lung ratio ([5]; 5 nmol/mouse): 39 ± 6
tumor-to-muscle ratio ([5]; 5 nmol/mouse): 143 ± 58 ^c
tumor-to-pancreas ratio ([5]; 5 nmol/mouse): 82 ± 33
tumor-to-salivary ratio ([5]; 5 nmol/mouse): 90 ± 16 ^c
tumor-to-small intestine ratio ([5]; 5 nmol/mouse): 19 ± 9 ^c
tumor-to-spleen ratio ([5]; 5 nmol/mouse): 26 ± 6
tumor-to-stomach ratio ([5]; 5 nmol/mouse): 77 ± 29
activity uptake in the gastrointestinal tract (with content) [5]: over 40 %IA
activity in carcass ([6]; 3 h pi): 2.9 ± 0.1 *^,c %IA/sample
activity in intestines with content ([6]; 3 h pi): 70 ± 7 *^,c %IA/sample
uptake in blood ([6]; 3 h pi): 0.5 ± 0.1 %IA/g
uptake in kidney ([6]; 3 h pi): 56 ± 9 *^,c %IA/g
uptake in liver ([6]; 3 h pi): 3 ± 1 *^,c %IA/g
uptake in lung ([6]; 3 h pi): 0.3 ± 0.1 *^,c %IA/g
uptake in salivary glands ([6]; 3 h pi): 0.24 ± 0.03 *^,c %IA/g
uptake in spleen ([6]; 3 h pi): 0.23 ± 0.07 *^,c %IA/g
uptake in stomach ([6]; 3 h pi): 0.17 ± 0.03 *^,c %IA/g
activity in carcass ([6]; 24 h pi): 0.12 ± 0.03 ^c %IA/sample
activity in intestines with content ([6]; 24 h pi): 0.16 ± 0.04 ^c %IA/sample
uptake in blood ([6]; 24 h pi): 0.016 ± 0.002 ^c %IA/g
uptake in kidney ([6]; 24 h pi): 1.1 ± 0.3 ^c %IA/g
uptake in liver ([6]; 24 h pi): 0.016 ± 0.004 ^c %IA/g
uptake in lung ([6]; 24 h pi): 0.014 ± 0.008 ^c %IA/g
uptake in salivary glands ([6]; 24 h pi): 0.015 ± 0.006 ^c %IA/g
uptake in spleen ([6]; 24 h pi): 0.007 ± 0.005 %IA/g
uptake in stomach ([6]; 24 h pi): 0.07 ± 0.05 ^c %IA/g
uptake in intestines with content, fold higher than [99mTc]Tc-BQ0411 ([6]; 3 h pi): 1.6 fold
uptake in kidneys, fold lower than [99mTc]Tc-BQ0411 ([6]; 3 h pi): 2.3 fold
activity remaining in the body ([6]; 3 h pi, excluding activity in the intestines with content): 20–30 % from injected
washout of activity from kidneys ([6]; 24 h pi compared to 3 h pi): 98%
internalized activity (of cell-associated activity) (PC3-pip cells; 4 h of continuous incubation): 43 ± 1%
internalized activity (of cell-associated activity) (PC3-pip cells; after 4 h (8 h of continuous incubation)): 32 ± 1%
